Experimental data taken from patent US4324783A, “Antibacterial composition for medical use” (Toyama Chemical Co., Ltd., priority 1977, dated 1982).

Assays:
[1] = test system: clinically isolated strains; test: Test Examples 1 to 3 with other β-lactamase-inhibiting penicillins or cephalosporins; assay type: cell-based; conditions: in place of Methicillin or Cloxacillin
Protocol: (§1) Heart Infusion agar containing a prescribed amount of Methicillin sodium or T-1220 was inoculated with the test bacterium at a rate of about 10^8 cells/ml. After incubation for 18 hours at 37° C., the growth of the test bacterium was inspected.
The β-lactamase activity was assayed by the iodometric assay method at 30° C., following the procedure of Perret [C.J. Perret, "Iodometric Assay of Penicillinase," Nature, 174, 1012-1013 (1954)], except that a 0.1 molar phosphate buffer solution (pH 7.0) was used in place of the 0.2 molar phosphate buffer solution (pH 6.5). One unit of β-lactamase activity corresponds to the quantity of β-lactamase which decomposes 1 μmole/hour of T-1220 in a 0.1 molar phosphate buffer solution (pH 7.0) containing 8 m moles of the substrate.
A pathogenic bacterium was inoculated at a rate of about 10^8 cells/ml into a Heart Infusion broth containing T-1220 (200 μg/ml) alone, T-1220 (200 μg/ml) plus Methicillin sodium (200 μg/ml), T-1220 (200 μg/ml) plus Cloxacillin sodium (200 μg/ml), Methicillin sodium (200 μg/ml) alone, or Cloxacillin sodium (200 μg/ml) alone. The inoculated broth was incubated at 37° C. and the number of live cells in the culture broth was determined at predetermined time intervals.
The test results described in the foregoing Test Examples 1 to 3 are typical of the pharmacological activity of the antibacterial composition of this invention.

[2] = test system: Escherichia coli TK-3 strain; test: Minimum inhibitory concentration; assay type: cell-based; conditions: TK3STRAIN
[3] = test system: Pseudomonas aeruginosa S-12 strain; test: Minimum inhibitory concentration; assay type: cell-based; conditions: S12STRAIN
[4] = test system: Escherichia coli TK-3 strain; test: Growth-inhibition test on clinically isolated strain (Heart Infusion agar, about 10^8 cells/ml, 18 hours at 37° C.); assay type: cell-based; design: key: (+) means that the test bacterium grew; (-) means that the test bacterium did not grow
Protocol: as §1

[5] = test system: Pseudomonas aeruginosa S-12 strain; test: as above; assay type: cell-based; design: key: (+) means that the test bacterium grew; (-) means that the test bacterium did not grow
Protocol: as §1

K. pneumoniae Y-53 = test: Effect of combined use on experimental infection in mice (protection effect); assay type: in vivo, ICR mice infected with K. pneumoniae; conditions: K. pneumoniae Y-53, 1.0 × 10^7 cells/mouse intraperitoneal; subcutaneous, one and two hours after inoculation
From the text: (§2) Male mice (5 mice per group) of the ICR strain, 4 weeks of age, were peritoneally inoculated with the prescribed number of pathogenic bacteria suspended in 5% mucin. After one hour and two hours following the inoculation, test preparations shown in Table 4 were subcutaneously administered to examine the protection effect.

P. aeruginosa S-111 = test: as above; assay type: in vivo, ICR mice infected with P. aeruginosa; conditions: P. aeruginosa S-111, 1.6 × 10^6 cells/mouse intraperitoneal; subcutaneous, one and two hours after inoculation
From the text: as §2

[6] = T-1220 0 + methicillin sodium 50 μg/ml
[7] = T-1220 0 + methicillin sodium 100 μg/ml
[8] = T-1220 0 + methicillin sodium 200 μg/ml

With `CO[C@@]1(NC(=O)Cc2cccs2)C(=O)N2C(C(=O)O)=C(COC(N)=O)CS[C@@H]21` [Cefoxitin] the “results in the Test Examples when used as the β-lactamase-inhibiting penicillin or cephalosporin” value [1] was “results similar to those obtained with Methicillin and Cloxacillin”.

With `Cc1onc(-c2ccccc2Cl)c1C(=O)N[C@@H]1C(=O)N2[C@@H]1SC(C)(C)[C@@H]2C(=O)O` [Cloxacillin sodium] the MIC [2] was greater than 3200 µg/mL and the MIC [3] was greater than 3200 µg/mL.

With `Cc1onc(-c2c(Cl)cccc2Cl)c1C(=O)N[C@@H]1C(=O)N2[C@@H]1SC(C)(C)[C@@H]2C(=O)O` [Dicloxacillin] the “results in the Test Examples when used as the β-lactamase-inhibiting penicillin or cephalosporin” value [1] was “results similar to those obtained with Methicillin and Cloxacillin”.

For `Cc1onc(-c2c(F)cccc2Cl)c1C(=O)N[C@@H]1C(=O)N2[C@@H]1SC(C)(C)[C@@H]2C(=O)O` [Flucloxacillin], the “results in the Test Examples when used as the β-lactamase-inhibiting penicillin or cephalosporin” value [1] was “results similar to those obtained with Methicillin and Cloxacillin”.

In the case of `COc1cccc(OC)c1C(=O)N[C@@H]1C(=O)N2[C@@H]1SC(C)(C)[C@@H]2C(=O)O` [Methicillin sodium], the “growth of the test bacterium” value [4, 6] is reported as “+”, the “growth of the test bacterium” value [4, 7] is reported as “+” and the “growth of the test bacterium” value [4, 8] is reported as “+”. The “growth of the test bacterium” value ([4]; T-1220 0 + methicillin sodium 400 μg/ml) was “+”, the “growth of the test bacterium” value ([4]; T-1220 0 + methicillin sodium 800 μg/ml) was “+” and the “growth of the test bacterium” value ([4]; T-1220 0 + methicillin sodium 1600 μg/ml) was “+”. The “growth of the test bacterium” value ([4]; T-1220 0 + methicillin sodium 3200 μg/ml) was “+”, the “growth of the test bacterium” value ([5]; T-1220 0 + methicillin sodium 3.13 μg/ml) was “+” and the “growth of the test bacterium” value ([5]; T-1220 0 + methicillin sodium 6.25 μg/ml) was “+”. For the same compound, the “growth of the test bacterium” value ([5]; T-1220 0 + methicillin sodium 12.5 μg/ml) was “+”, the “growth of the test bacterium” value ([5]; T-1220 0 + methicillin sodium 25 μg/ml) was “+” and the “growth of the test bacterium” value [5, 6] was “+”. The “growth of the test bacterium” value [5, 7] was “+”, the “growth of the test bacterium” value [5, 8] was “+” and the MIC [2] was greater than 3200 µg/mL. For the same compound, the MIC [3] was greater than 3200 µg/mL, the “ED50 (protection effect)” value (K. pneumoniae Y-53) was greater than 50 mg/mouse and the “ED50 (protection effect)” value (P. aeruginosa S-111) was greater than 50 mg/mouse.

With `Cc1onc(-c2ccccc2)c1C(=O)N[C@@H]1C(=O)N2[C@@H]1SC(C)(C)[C@@H]2C(=O)O` [Oxacillin] the “results in the Test Examples when used as the β-lactamase-inhibiting penicillin or cephalosporin” value [1] was “results similar to those obtained with Methicillin and Cloxacillin”.

In the case of `CCN1CCN(C(=O)N[C@@H](C(=O)N[C@@H]2C(=O)N3[C@@H]2SC(C)(C)[C@@H]3C(=O)O)c2ccccc2)C(=O)C1=O` [T-1220, sodium 6-[D(-)-α-(4-ethyl-2,3-dioxo-1-piperazinylcarbonylamino)phenylacetamido]penicillanate], the “growth of the test bacterium” value ([4]; T-1220 50 + methicillin sodium 0 μg/ml) is reported as “+”, the “growth of the test bacterium” value ([4]; T-1220 100 + methicillin sodium 0 μg/ml) is reported as “+” and the “growth of the test bacterium” value ([4]; T-1220 200 + methicillin sodium 0 μg/ml) is reported as “+”. For the same compound, the “growth of the test bacterium” value ([4]; T-1220 400 + methicillin sodium 0 μg/ml) was “+”, the “growth of the test bacterium” value ([4]; T-1220 800 + methicillin sodium 0 μg/ml) was “+” and the “growth of the test bacterium” value ([4]; T-1220 1600 + methicillin sodium 0 μg/ml) was “+”. For the same compound, the “growth of the test bacterium” value ([4]; T-1220 3200 + methicillin sodium 0 μg/ml) was “+”, the “growth of the test bacterium” value ([5]; T-1220 50 μg/ml, methicillin sodium concentration not given) was “+” and the “growth of the test bacterium” value ([5]; T-1220 100 μg/ml, methicillin sodium concentration not given) was “+”. The “growth of the test bacterium” value ([5]; T-1220 200 μg/ml, methicillin sodium concentration not given) was “+”, the “growth of the test bacterium” value ([5]; T-1220 400 μg/ml, methicillin sodium concentration not given) was “+” and the “growth of the test bacterium” value ([5]; T-1220 800 μg/ml, methicillin sodium concentration not given) was “+”. The “growth of the test bacterium” value ([5]; T-1220 1600 μg/ml, methicillin sodium concentration not given) was “+”, the “growth of the test bacterium” value ([5]; T-1220 3200 μg/ml, methicillin sodium concentration not given) was “+” and the MIC [2] was greater than 3200 µg/mL. For the same compound, the MIC [3] was greater than 3200 µg/mL, the “ED50 (protection effect)” value (K. pneumoniae Y-53) was greater than 50 mg/mouse and the “ED50 (protection effect)” value (P. aeruginosa S-111) was greater than 50 mg/mouse.
